Results taken from US20150224164A1, “TREATMENT OF AUTISM SPECTRUM DISORDERS USING GLYCYL-L-2-METHYLPROLYL-L-GLUMATIC ACID” (Neuren Pharmaceuticals Limited, priority 2013, published 2015).
Where a SMILES comes first, the peptide text is derived from it.

Tests used:
[1] = system: fmr1 KO hippocampal neurons; test: Dendritic spine density in hippocampal primary cell cultures (microfluidic chamber, GFP); type: cell-based, mouse; conditions: 0.5 nM, n=3 independent experiments
Protocol: Hippocampal cell cultures were prepared from wild-type and fmr1 KO foetal mice (14-16 d of gestation). After 3d in vitro, green fluorescent protein (GFP) was used to monitor dendritic spine density during time-course of culture (Ethell and Yamaguchi, 1999; Ethell et al., 2001, Henkemeyer et al., 2003). Dendritic spines are usually formed between 7 and 14 days in vitro (DIV). By 14 DIV most dendritic protrusions are spines. We evaluated the effect of G-2-MePE, a positive control (the mGluR5 antagonist 2-methyl-6-(phenylethynyl)-pyridine or MPEP) and vehicle controls on dendritic spine density in fmr1 KO and WT hippocampal primary cell cultures. Fmr1 KO and wild-type cultures were treated at 17 DIV.
We used the compartmentalized culture system, a microfluidic chamber (see FIG. 31A) which opens the possibility for fast drug testing with the capacity to detect in vitro drug effects such as spine morphology, neurite outgrowth and synapse formation. The treated and untreated neurons in the compartmentalized chambers can be also being use for western blot analysis. The compartmentalised culture is a new approach to evaluate the effect of drugs on anterograde and retrograde transport of messengers and proteins relevant to FXS. Other new possibility that offers this approach its access into exclusive axon compartment, in this area immunodetection and treatments are also possible. […]

12-month old rats = test: Morris water maze, spatial reference memory; type: in vivo, rat; conditions: 0.96 or 4.8 mg/day s.c. mini-osmotic pump, vs saline
Protocol: We used male Wistar rats 12, 8 or 4 months of age. The Morris water maze test was conducted using a black plastic pool filled to a depth of 25 cm with water colored black with a non-toxic dye. […] The platform remained in that position though the training. The experiment used extra-maze cues (i.e. objects in the room surrounding the pool) that the rats could use to navigate to the platform. Distinctive posters or paintings were hung on the walls. Furniture in the room was not moved during the testing period. The placement of the pool allowed the experimenter an easy access to it from all sides. The pool was emptied and refilled daily during testing, with water at 25° C.+/-2° C. Rats in each group were trained to swim to the submerged platform. The rats received six 60-second trials per day for four consecutive days. A trial began by placing the rat into the water facing the wall of the pool, at one of four start locations (north, south, east, west). The sequence of start locations was chosen pseudorandomly, so that the start location of any given trial was different from that of the previous trial, and no start location was used more than twice during daily training. […] The swim latency for each rat was recorded for each trial for each day of the acquisition and retention phases and changes between phases were examined using Analysis of Variance.

SMILES: C[C@@]1(C(=O)N[C@@H](CCC(=O)O)C(=O)O)CCCN1C(=O)CN [Example G-2-MePE, Glycyl-L-2-methylprolyl-L-glutamic acid] (HELM PEPTIDE1{G.[C[C@@]1(C(=O)[*:2])CCCN1[*:1]].E}$$$$V2.0)
- dendritic spine density (mean±SD) [1]: 0.33±0.07 spines per micrometer
- memory: time needed to reach the platform, retention phase (12-month old rats): improved memory
